Measurements published in US10308652B2, “Tricyclic heterocyclic compounds useful as inhibitors of TNF” (BRISTOL-MYERS SQUIBB COMPANY, priority 2015, dated 2019).

The compounds below were run against TNFα (Homo sapiens (Human), UniProt P01375) (assay: TNF induced HEK-Blue assay). Conditions: TNFα 0.5 ng/ml; HEK-Blue-CD40L cells, NF-κB-driven secreted alkaline phosphatase reporter; 18 h.
TNFα, sequence (P01375 77-233): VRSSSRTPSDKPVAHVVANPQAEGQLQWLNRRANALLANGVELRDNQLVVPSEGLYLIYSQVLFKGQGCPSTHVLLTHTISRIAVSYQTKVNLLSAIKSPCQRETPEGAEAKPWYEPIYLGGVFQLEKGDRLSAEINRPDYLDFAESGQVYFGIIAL
Type: cell-based
Description: TNF or CD40L-induced HEK-Blue Assay Test compounds serially diluted in DMSO were plated in an assay plate (Labcyte, Cat. #LP-0200) at final concentrations ranging from 0.004 μM to 25μM. TNFα (final concentration 0.5 ng/ml) or CD4OL (final concentration 30 ng/ml) in assay buffer [DMEM, 4.5 g/l glucose (Gibco, Cat. 21063-029), 10% FBS (Sigma, F4135), 1% Penicillin-Streptomycin (Gibco, Cat. 15140-122), 1% Anti-Anti (Gibco, Cat. 15240-112) and 2 mM L-glutamine (Gibco, Cat. 25030-081)] was then added to the assay plate. After a 30 minute pre-incubation at 37° C. and 5% CO2, HEK-Blue-CD40L cells (InvivoGen, Cat. Code hkb-cd40) containing a NF-κB-driven secreted alkaline phosphatase reporter gene were seeded into the assay plate at a density of 20,000 cells per well. This plate was then incubated for 18 h at 37° C. and 5% CO2. Secreted alkaline phosphatase expression was measured using QUANTI-Blue (InvivoGen, Cat. Code rep-qb1) according to manufacturer's specifications and the assay plate was read on a PerkinElmer Envision at 620 nm. Inhibition data for the test compound over a range of concentrations was plotted as percentage inhibition of the test compound (100%=maximum inhibition). IC50 values were determined after correcting for background [(sample read−mean of low control)/(mean of high control−mean of low control)] where by the low control is DMSO without stimulation and high control is DMSO with stimulation. The IC50 is defined as the concentration of test compound which produces 50% inhibition and was quantified using the 4 parameter logistic equation to fit the data.
`COc1ccc(-c2ccc3nc4c(n3n2)C(c2ccccc2OC(F)F)NCC4)cn1` (racemic) [Example 1, (+/−)-9-(2-(Difluoromethoxy)phenyl)-2-(6-methoxypyridin-3-yl)-6,7,8,9-tetrahydropyrido[4′,3′:4,5]imidazo[1,2-b]pyridazine] was tested, and the IC50 was < 1 µM. With `CC(C)(O)c1ccc(-c2ccc3nc4c(n3n2)C(c2ccccc2OC(F)F)NCC4)cc1` (racemic) [Example 2, (+/−)-2-(4-(9-(2-(Difluoromethoxy)phenyl)-6,7,8,9-tetrahydropyrido [4′,3′:4,5]imidazo[1,2-b]pyridazin-2-yl)phenyl)propan-2-ol] the IC50 was < 1 µM. In the case of `CC(C)(O)c1ncc(-c2ccc3nc4c(n3n2)C(c2ccccc2OC(F)F)NCC4)cn1` (racemic) [Example 3, (+/−)-2-(5-(9-(2-(Difluoromethoxy)phenyl)-6,7,8,9-tetrahydropyrido[4′,3′:4,5]imidazo[1,2-b]pyridazin-2-yl)pyrimidin-2-yl)propan-2-ol], the IC50 is reported as 1 to 10 µM. With `CC(C)(O)c1ccc(-c2ccc3nc4c(n3n2)[C@H](c2ccccc2OC(F)F)NC[C@@H]4O)cc1` (racemic) [Example 4, (+/−)-cis-9-(2-(difluoromethoxy)phenyl)-2-(4-(2-hydroxypropan-2-yl)phenyl)-6,7,8,9-tetrahydropyrido[4′,3′:4,5]imidazo[1,2-b]pyridazin-6-ol] the IC50 was < 1 µM. With `CC(C)(O)c1ccc(-c2ccc3nc4c(n3n2)[C@H](c2ccccc2OC(F)F)NC[C@@H]4F)cc1` (racemic) [Example 8, (+/−)-Cis-2-(4-((6S,9S)-9-(2-(difluoromethoxy)phenyl)-6-fluoro-6,7,8,9-tetrahydropyrido [4′,3′:4,5]imidazo[1,2-b]pyridazin-2-yl)phenyl)propan-2-ol] the IC50 was < 1 µM. `CC(C)(O)c1ccc(-c2ccc3nc4c(n3n2)[C@H](c2ccccc2OC(F)F)NC[C@H]4F)cc1` (racemic) [Example 9, (+/−)-trans-2-(4-(9-(2-(difluoromethoxy)phenyl)-6-fluoro-6,7,8,9-tetrahydropyrido[4′,3′:4,5]imidazo[1,2-b]pyridazin-2-yl)phenyl)propan-2-ol] was tested, and the IC50 was 1 to 10 µM. With `CC(C)(O)c1ncc(-c2ccc3nc4c(n3n2)[C@@H](c2ccccc2OC(F)F)NC[C@H]4F)cn1` (racemic) [Example 10, (+/−)-cis-2-(5-(9-(2-(difluoromethoxy)phenyl)-6-fluoro-6,7,8,9-tetrahydropyrido [4′,3′:4,5]imidazo[1,2-b]pyridazin-2-yl)pyrimidin-2-yl)propan-2-ol] the IC50 was 1 to 10 µM. Work on `COc1ccc(-c2ccc3nc4c(n3n2)[C@@H](c2ccccc2OC(F)F)NC[C@H]4F)cn1` (racemic) [Example 11, (+/−)-cis-9-(2-(difluoromethoxy)phenyl)-6-fluoro-2-(6-methoxypyridin-3-yl)-6,7,8,9-tetrahydropyrido [4′,3′:4,5]imidazo[1,2-b]pyridazine] yielded an IC50 of 10 to 25 µM. Compound `COc1cc(F)ccc1[C@@H]1NC[C@@H](O)c2nc3ccc(-c4ccc(C(C)(C)O)cc4)nn3c21` (racemic) [Example 23, (+/−)-trans-9-(4-fluoro-2-methoxyphenyl)-2-(4-(2-hydroxypropan-2-yl)phenyl)-6,7,8,9-tetrahydropyrido[4′,3′:4,5]imidazo[1,2-b]pyridazin-6-ol] has an IC50 of 1 to 10 µM. For `CCc1ccccc1[C@@H]1NC[C@@H](O)c2nc3ccc(-c4ccc(C(C)(C)O)cc4)nn3c21` (racemic) [Example 24, (+/−)-trans-9-(2-ethylphenyl)-2-(4-(2-hydroxypropan-2-yl)phenyl)-6,7,8,9-tetrahydropyrido[4′,3′:4,5]imidazo[1,2-b]pyridazin-6-ol], the IC50 was < 1 µM. `CCc1ccccc1[C@H]1NC[C@@H](O)c2nc3ccc(-c4ccc(C(C)(C)O)cc4)nn3c21` (racemic) [Example 25, (+/−)-cis-9-(2-ethylphenyl)-2-(4-(2-hydroxypropan-2-yl)phenyl)-6,7,8,9-tetrahydropyrido[4′,3′:4,5]imidazo[1,2-b]pyridazin-6-ol] showed an IC50 of 1 to 10 µM. In the case of `CC(C)COc1ccc(-c2ccc3nc4c(n3n2)[C@@H](c2ccccc2OC(F)F)NC[C@H]4O)cc1` (racemic) [Example 27, (+/−)-cis-9-(2-(difluoromethoxy)phenyl)-2-(4-isobutoxyphenyl)-6,7,8,9-tetrahydropyrido[4′,3′:4,5]imidazo[1,2-b]pyridazin-6-ol], the IC50 is reported as 1 to 10 µM. In the case of `CC(C)(O)c1ccc(-c2ccc3nc4c(n3n2)[C@H](c2cc(Cl)ccc2OC(F)F)NC[C@H]4O)cc1` (racemic) [Example 28, (+/−)-trans-9-(5-chloro-2-(difluoromethoxy)phenyl)-2-(4-(2-hydroxypropan-2-yl)phenyl)-6,7,8,9-tetrahydropyrido[4′,3′:4,5]imidazo[1,2-b]pyridazin-6-ol], the IC50 is reported as 1 to 10 µM. `CC(C)(O)COc1ccc(-c2ccc3nc4c(n3n2)[C@@H](c2ccccc2OC(F)F)NC[C@H]4O)cc1` (racemic) [Example 29, (+/−)-cis-9-(2-(difluoromethoxy)phenyl)-2-(4-(2-hydroxy-2-methylpropoxy)phenyl)-6,7,8,9-tetrahydropyrido[4′,3′:4,5]imidazo[1,2-b]pyridazin-6-ol] was tested, and the IC50 was 1 to 10 µM. Compound `COc1cc(-c2ccc3nc4c(n3n2)[C@@H](c2ccccc2OC(F)F)NC[C@H]4O)ccc1OCC(C)(C)O` (racemic) [Example 30, (+/−)-cis-9-(2-(difluoromethoxy)phenyl)-2-(4-(2-hydroxy-2-methylpropoxy)-3-methoxyphenyl)-6,7,8,9-tetrahydropyrido[4′,3′:4,5]imidazo[1,2-b]pyridazin-6-ol] has an IC50 of 1 to 10 µM. `CCOc1ccc(-c2ccc3nc4c(n3n2)[C@@H](c2ccccc2OC(F)F)NC[C@H]4O)cc1` (racemic) [Example 31, (+/−)-cis-9-(2-(difluoromethoxy)phenyl)-2-(4-ethoxyphenyl)-6,7,8,9-tetrahydropyrido[4′,3′:4,5]imidazo [1,2-b]pyridazin-6-ol] was tested, and the IC50 was 1 to 10 µM. Compound `CC(C)Oc1ccc(-c2ccc3nc4c(n3n2)[C@@H](c2ccccc2OC(F)F)NC[C@H]4O)cc1` (racemic) [Example 32, (+/−)-cis-9-(2-(difluoromethoxy)phenyl)-2-(4-isopropoxyphenyl)-6,7,8,9-tetrahydropyrido[4′,3′:4,5]imidazo[1,2-b]pyridazin-6-ol] has an IC50 of 1 to 10 µM. With `CCCOc1ccc(-c2ccc3nc4c(n3n2)[C@@H](c2ccccc2OC(F)F)NC[C@H]4O)cc1` (racemic) [Example 33, (+/−)-cis-9-(2-(difluoromethoxy)phenyl)-2-(4-propoxyphenyl)-6,7,8,9-tetrahydropyrido [4′,3′:4,5]imidazo[1,2-b]pyridazin-6-ol] the IC50 was < 1 µM. With `COCCOc1ccc(-c2ccc3nc4c(n3n2)[C@@H](c2ccccc2OC(F)F)NC[C@H]4O)cc1` (racemic) [Example 34, (+/−)-cis-9-(2-(difluoromethoxy)phenyl)-2-(4-(2-methoxyethoxy)phenyl)-6,7,8,9-tetrahydropyrido[4′,3′:4,5]imidazo[1,2-b]pyridazin-6-ol] the IC50 was 1 to 10 µM. Compound `CCOC(C)c1ccc(-c2ccc3nc4c(n3n2)C(c2ccccc2OC(F)F)NCC4O)cc1` (racemic) [Example 35, (+/−)-cis-9-(2-(difluoromethoxy)phenyl)-2-(4-(1-ethoxyethyl)phenyl)-6,7,8,9-tetrahydropyrido[4′,3′:4,5]imidazo[1,2-b]pyridazin-6-ol] has an IC50 of 1 to 10 µM. In the case of `O[C@@H]1CN[C@H](c2ccccc2OC(F)F)c2c1nc1ccc(-c3ccc(C4(O)CC4)cc3)nn21` (racemic) [Example 36, (+/−)-cis-9-(2-(difluoromethoxy)phenyl)-2-(4-(1-hydroxycyclopropyl)phenyl)-6,7,8,9-tetrahydropyrido [4′,3′:4,5]imidazo[1,2-b]pyridazin-6-ol], the IC50 is reported as 1 to 10 µM. `COc1ccccc1COc1ccc(-c2ccc3nc4c(n3n2)[C@@H](c2ccccc2OC(F)F)NC[C@H]4O)cc1` (racemic) [Example 37, (+/−)-cis-9-(2-(difluoromethoxy)phenyl)-2-(4-((2-methoxybenzyl)oxy)phenyl)-6,7,8,9-tetrahydropyrido[4′,3′:4,5]imidazo[1,2-b]pyridazin-6-ol] gave an IC50 of 1 to 10 µM. `Cc1cc(F)ccc1[C@@H]1NC[C@@H](O)c2nc3ccc(-c4ccc(C(C)(C)O)cc4)nn3c21` (racemic) [Example 38, (+/−)-trans-9-(4-fluoro-2-methylphenyl)-2-(4-(2-hydroxypropan-2-yl)phenyl)-6,7,8,9-tetrahydropyrido[4′,3′:4,5]imidazo[1,2-b]pyridazin-6-ol] was tested, and the IC50 was 1 to 10 µM. With `CC(C)(O)c1ccc(-c2ccc3nc4c(n3n2)[C@@H](c2ccc(F)cc2C(F)(F)F)NC[C@H]4O)cc1` (racemic) [Example 39, (+/−)-cis-9-(4-fluoro-2-(trifluoromethyl)phenyl)-2-(4-(2-hydroxypropan-2-yl)phenyl)-6,7,8,9-tetrahydropyrido[4′,3′:4,5]imidazo[1,2-b]pyridazin-6-ol] the IC50 was < 1 µM. Compound `CNS(=O)(=O)c1ccc(-c2ccc3nc4c(n3n2)[C@@H](c2ccccc2OC(F)F)NC[C@H]4O)cc1` (racemic) [Example 40, (+/−)-cis-4-(9-(2-(difluoromethoxy)phenyl)-6-hydroxy-6,7,8,9-tetrahydropyrido[4′,3′:4,5]imidazo[1,2-b]pyridazin-2-yl)-N-methylbenzenesulfonamide] has an IC50 of 1 to 10 µM.
